{"source": "ChEMBL document CHEMBL1158311", "about": "“Fusaricide, a new cytotoxic N-hydroxypyridone from Fusarium sp” (J Nat Prod, 1996)", "key": {"[1]": {"test": "Ratio of IC50 for R17 activity to IC50 for HIV1 Rev activity"}, "[2]": {"test": "Inhibition of R17 coat protein binding to [33P]labeled R17 operator RNA"}, "M109": {"tested_on": "M109", "test": "Antitumor activity against mouse M109 cells", "type": "functional"}, "Penicillium chrysogenum": {"tested_on": "Penicillium chrysogenum", "test": "Antifungal activity against Penicillium chrysogenum", "type": "functional"}, "[3]": {"test": "Inhibition of HIV1 recombinant Rev protein expressed in Escherichia coli binding to HIV1 Rre RNA by liquid scintillation assay", "parameters": "species or system Human immunodeficiency virus 1"}, "Candida albicans": {"tested_on": "Candida albicans", "test": "Antifungal activity against Candida albicans", "type": "functional"}}, "data": [{"smiles": "CC[C@@H]1Oc2ccn(O)c(=O)c2[C@H]2[C@H](C)C[C@H](C)C[C@]12C", "note": "[FUSARICIDE]", "values": [{"measurement": "Ratio IC50", "setting": "[1]", "value": "< 2"}, {"measurement": "IC50", "setting": "[2]", "value": 75, "unit": "mg/L"}, {"measurement": "Activity", "setting": "M109", "value": 1, "unit": "µg/mL"}, {"measurement": "MIC", "setting": "Penicillium chrysogenum", "value": 8, "unit": "mg/L"}, {"measurement": "IC50", "setting": "[3]", "value": 40, "unit": "mg/L"}, {"measurement": "MIC", "setting": "Candida albicans", "value": 16, "unit": "mg/L"}]}]}
